Source: PubChem BioAssay (NCI)
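GI50 marks 50% less growth. TGI denotes the concentration required for complete inhibition of growth.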

How the values were obtained:
Assay in all cases: growth of human tumour cells (NCI), 384-well format
[1] = test system: OVCAR-4 ovarian
[2] = test system: HOP-92 NSCLC
[3] = test system: SK-OV-3 ovarian
[4] = test system: T-47D breast
[5] = test system: HOP-62 NSCLC
[6] = test system: SF-268 CNS
[7] = test system: 786-0 renal
[8] = test system: A498 renal
[9] = test system: HCT-116 colon
[10] = test system: MALME-3M melanoma
[11] = test system: COLO 205 colon
[12] = test system: BT-549 breast
[13] = test system: SK-MEL-2 melanoma
[14] = test system: UO-31 renal
[15] = test system: SW-620 colon
[16] = test system: CCRF-CEM leukemia
[17] = test system: RPMI-8226 leukemia
[18] = test system: A549 NSCLC
[19] = test system: DU-145 prostate
[20] = test system: MDA-MB-435 melanoma
[21] = test system: SF-295 CNS
[22] = test system: SNB-19 CNS
[23] = test system: HCT-15 colon
[24] = test system: HT29 colon
[25] = test system: PC-3 prostate
[26] = test system: RXF 393 renal
[27] = test system: K-562 leukemia
[28] = test system: TK-10 renal
[29] = test system: SN12C renal

For `C#Cc1c(F)ccc2cc(O)cc(-c3ncc4c(N5CC6CCC(C5)N6)nc(OC[C@@]56CCCN5C[C@H](F)C6)nc4c3F)c12`, the GI50 [1] was 7.07 µM, the TGI [1] was 19.7 µM and the GI50 [2] was 2.03 µM. The TGI [2] was 4.02 µM, the GI50 [3] was 2.36 µM and the TGI [3] was 5.59 µM. For the same molecule, the GI50 [4] was 2.03 µM, the TGI [4] was 5.32 µM and the GI50 [5] was 0.853 µM. It also gave a TGI [5] of 10.2 µM, a GI50 [6] of 1.99 µM and a TGI [6] of 4.34 µM. The GI50 [7] was 12.4 µM, the TGI [7] was 24.9 µM and the GI50 [8] was 10.5 µM. It also gave a TGI [8] of 22.4 µM, a GI50 [9] of 1.37 µM and a TGI [9] of 2.9 µM. For the same molecule, the GI50 [10] was 1.99 µM, the TGI [10] was 3.43 µM and the GI50 [11] was 2.02 µM. It also gave a TGI [11] of 3.94 µM, a GI50 [12] of 1.86 µM and a TGI [12] of 3.47 µM. The GI50 [13] was 1.85 µM, the TGI [13] was 3.26 µM and the GI50 [14] was 15.8 µM. It also gave a TGI [14] of 29.3 µM, a GI50 [15] of 0.375 µM and a TGI [15] of 1.61 µM. For the same molecule, the GI50 [16] was 1.25 µM, the TGI [16] was 2.51 µM and the GI50 [17] was 0.0774 µM. The TGI [17] was 0.845 µM, the GI50 [18] was 5.54 µM and the TGI [18] was 18.5 µM. It also gave a GI50 [19] of 13.7 µM, a TGI [19] of 26.6 µM and a GI50 [20] of 1.93 µM. It also gave a TGI [20] of 3.4 µM, a GI50 [21] of 17.7 µM and a TGI [21] of 31.6 µM. The GI50 [22] was 10.8 µM, the TGI [22] was 22.8 µM and the GI50 [23] was 14.6 µM. For the same molecule, the TGI [23] was 27.8 µM, the GI50 [24] was 2.02 µM and the TGI [24] was 4.05 µM. For the same molecule, the GI50 [25] was 9.06 µM, the TGI [25] was 21 µM and the GI50 [26] was 2.41 µM. It also gave a TGI [26] of 6.19 µM, a GI50 [27] of 3.58 µM and a TGI [27] of 9.9 µM. For the same molecule, the GI50 [28] was 17.3 µM, the TGI [28] was 31.1 µM and the GI50 [29] was 11.5 µM.
